Measured values published in ChEMBL document CHEMBL5608248, “Exploring the Therapeutic Potential of Entheogens in Postoperative Cognitive Decline and Psychological Resilience” (ACS Med Chem Lett, 2024).

Target: 5-hydroxytryptamine receptor 2A (Homo sapiens) (UniProt P28223)
Test: Agonist activity at 5-HT2A (unknown origin) expressed in HEK293 cells assessed as increase in calcium influx by measuring maximal efficacy incubated for 50 mins by Fluo-4 dye based FLIPR assay relative to control
Assay type: functional, cell-based
Details: filed as agonist

5-hydroxytryptamine receptor 2A (Homo sapiens), sequence (P28223 whole entry): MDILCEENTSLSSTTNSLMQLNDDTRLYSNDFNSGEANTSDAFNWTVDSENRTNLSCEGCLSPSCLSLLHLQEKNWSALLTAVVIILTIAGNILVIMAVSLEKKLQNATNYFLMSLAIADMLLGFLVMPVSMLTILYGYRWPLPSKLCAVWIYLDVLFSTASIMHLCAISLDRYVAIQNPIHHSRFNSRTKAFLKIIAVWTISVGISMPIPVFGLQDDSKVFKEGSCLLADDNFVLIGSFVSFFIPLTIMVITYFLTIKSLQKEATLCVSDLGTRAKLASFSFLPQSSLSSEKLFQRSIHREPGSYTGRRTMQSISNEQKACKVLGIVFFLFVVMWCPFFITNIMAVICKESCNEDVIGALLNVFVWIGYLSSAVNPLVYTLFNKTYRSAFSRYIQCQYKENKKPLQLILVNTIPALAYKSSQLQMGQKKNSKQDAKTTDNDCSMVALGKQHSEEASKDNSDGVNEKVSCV

In order of falling Emax:
1. COc1cccc(CNCCc2cccc3ccc(OC)cc23)c1  84%
2. CC(C)N(C)CCc1cccc2cccc(O)c12  79%
3. COc1ccc2cccc(CCN(C)C)c2c1  79%
4. CN(C)CCc1cccc2cccc(O)c12  73%
5. CCN(C)CCc1cccc2cccc(O)c12  68%
6. CN(CCc1cccc2cccc(O)c12)C1CC1  64%
7. CCN(C)CCc1cccc2ccc(OC)cc12  63%
